The results in this text go back to ChEMBL document CHEMBL1201862, “PubChem BioAssay data set” (2004).

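Briefly, cells in 96-well plates were exposed to five compound concentrations for 48 h, and endpoints were estimated by linear interpolation. Abbreviation: GI50, concentration required for 50% inhibition of growth.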 The source made the active and inactive calls. No stated cut-off is given here; in the data, active = GI50 up to about 1.1 µM and inactive = higher. Some results are limits rather than exact numbers.

Some test systems named below: DMS-114; DMS-273; HOP-18; KM-20L2; LXFL 529; RXF 631; SNB-78; XF498; DLD-1.
What all share (assay): growth of human tumour cells (NCI), 48 h

As to `C#CC(C)(C)Oc1cc(O)c2c(=O)c3ccccc3n(C)c2c1`, the GI50 with DMS-114 is > 100 µM (inactive); with DMS-273 it was 23.1 µM (inactive); in the test with HOP-18 it was > 100 µM (inactive); in the test with KM-20L2, > 100 µM (inactive); in the test with LXFL 529 it was > 100 µM (inactive); in the test with RXF 631 it was > 100 µM (inactive). Also, the GI50 in the test with SNB-78 and with XF498 was > 100 µM (inactive) throughout.
With `COc1ccccc1NC(=O)NS(=O)(=O)c1ccccc1`, the GI50 in the test with DLD-1 is > 100 µM (inactive); in the test with DMS-114, > 100 µM (inactive); with DMS-273, > 100 µM (inactive); with HOP-18 it was 48.2 µM (inactive); in the test with KM-20L2, > 100 µM (inactive); with LXFL 529, > 100 µM (inactive). Besides, the GI50 in the test on SNB-78 is > 100 µM (inactive).
For the molecule `Cc1ccccc1-n1c(CCl)nc2ccc(Br)cc2c1=O`, the GI50 is 3.82 µM (inactive) in the test with DLD-1; 7.46 µM (inactive) in the test with DMS-114; 26 µM (inactive) with DMS-273; 22.9 µM (inactive) in the test on HOP-18; 17.8 µM (inactive) in the test with KM-20L2; 0.887 µM (active) in the test on LXFL 529. Also, the GI50 in the test with RXF 631 was 16.9 µM (inactive); with SNB-78, 18.2 µM (inactive).
`O=C(c1ccccc1)c1nc2ccc(Cl)cc2c2c1Cc1ccccc1-2`: the GI50 in the test on DLD-1, with DMS-114, in the test on DMS-273, in the test on HOP-18, in the test on KM-20L2 and in the test on LXFL 529 was > 100 µM (inactive) in each case. The GI50 in the test on XF498 was > 100 µM (inactive).
With `N#Cc1nc(Nc2ccc([N+](=O)[O-])cc2)sc1N`, the GI50 in the test on DLD-1 is 23.4 µM (inactive); in the test on DMS-273 it was 21.2 µM (inactive); in the test with HOP-18, 61.2 µM (inactive); in the test on KM-20L2, 23.9 µM (inactive); in the test with LXFL 529, 8.69 µM (inactive); with RXF 631 it was 11.4 µM (inactive). In addition, the results for the GI50 with SNB-78 and in the test with XF498 were 32.2 µM (inactive) and 17.3 µM (inactive), respectively.
On to `O=C(NCCCCCCCCCCCCNC(=O)c1cccc2ccccc12)c1cccc2ccccc12`, for which the GI50 in the test on DLD-1 was 51.4 µM (inactive); in the test with DMS-114, > 100 µM (inactive); in the test on DMS-273, > 100 µM (inactive); in the test on HOP-18, > 61.1 µM (inactive); in the test on KM-20L2, > 100 µM (inactive); with LXFL 529, > 91.4 µM (inactive). Besides, the GI50 in the test on RXF 631 is 31.2 µM (inactive); in the test with SNB-78 it was > 47 µM (inactive); with XF498, > 47.8 µM (inactive).
Take `O=C(Nc1ccccc1C(=O)NC(=O)c1ccccc1NC(=O)c1ccccc1)c1ccccc1`: the GI50 is 12.5 µM (inactive) with DLD-1; 2.17 µM (inactive) with DMS-114; 2.29 µM (inactive) in the test on DMS-273; 4.49 µM (inactive) in the test with HOP-18; 3.15 µM (inactive) in the test with KM-20L2; 1.69 µM (inactive) with XF498.
Turning to `CC1=C(C(=O)NCc2ccccc2)C(/C=C/c2ccccc2)C(C(=O)NCc2ccccc2)=C(C)N1`, the GI50 with DLD-1, in the test on DMS-114, with DMS-273, in the test with HOP-18, in the test with KM-20L2 and in the test on LXFL 529 was > 100 µM (inactive) in each case. Moreover, the GI50 in the test with SNB-78 and in the test on XF498 was > 100 µM (inactive) in each case.
In the case of `N#Cc1cccc2c1Nc1ccccc1S2`, the GI50 in the test with DLD-1 is > 100 µM (inactive); in the test on DMS-114 it was 81.1 µM (inactive); in the test on DMS-273 it was > 100 µM (inactive); in the test on HOP-18, 37.3 µM (inactive); in the test with KM-20L2 it was > 100 µM (inactive); with SNB-78, 67.9 µM (inactive). The GI50 in the test with XF498 was 41.8 µM (inactive).
For the molecule `CC(=O)NCCCCCCNC(C)=O` [HEXAMETHYLENEBISACETAMIDE], the GI50 with DLD-1 is 8240 µM (inactive); in the test with DMS-114, 3860 µM (inactive); in the test with DMS-273, 3600 µM (inactive); in the test on HOP-18 it was 7530 µM (inactive); in the test with KM-20L2 it was 5220 µM (inactive); with SNB-78, 6590 µM (inactive). The GI50 in the test on XF498 is 3180 µM (inactive).
With `C=C1CC2OC(=O)C(=C)C2C(O)C2C(=C)CCC12` (stereo not drawn), the GI50 in the test with DLD-1 is 10.1 µM (inactive); with DMS-114, 4.55 µM (inactive); with DMS-273, 8.2 µM (inactive); with HOP-18, 15.9 µM (inactive); with LXFL 529 it was 4.33 µM (inactive); with SNB-78, 6.56 µM (inactive).
In the case of `CCOC(=O)C1C(c2ccc(Cl)cc2Cl)NC(c2ccc(C)cc2)C(C(=O)OC)S1(=O)=O` (stereo not drawn), the GI50 was > 100 µM (inactive) with DLD-1; 85.5 µM (inactive) in the test with DMS-273; 54.6 µM (inactive) with LXFL 529; > 100 µM (inactive) with SNB-78; 3.33 µM (inactive) with XF498.
As for `COc1ccc2c(c1)[n+]([O-])c(/C(C)=N/NC(=O)c1ccccc1O)c(C)[n+]2[O-]`, the GI50 in the test with DLD-1, in the test with DMS-114, with HOP-18, with KM-20L2, in the test with LXFL 529 and with RXF 631 was > 100 µM (inactive) throughout. In addition, the GI50 was > 100 µM (inactive) in the test with SNB-78 and 81.5 µM (inactive) with XF498.
`C=C1C(=O)OC2C/C(C)=C/CC/C(C)=C/CCC3(COC(C)=O)OC3CC12` (stereo not drawn): the GI50 with DLD-1 is 3.81 µM (inactive); in the test with DMS-114, 4.09 µM (inactive); in the test with DMS-273, 3.87 µM (inactive); in the test on HOP-18 it was 11.2 µM (inactive); in the test on KM-20L2 it was 6.93 µM (inactive); in the test on LXFL 529, 2.77 µM (inactive). Besides, the GI50 is 7.71 µM (inactive) with SNB-78 and 7.11 µM (inactive) in the test on XF498.
`COc1cc(Nc2cnc3cc(C(F)(F)F)ccc3n2)cc(OC)c1OC`: the GI50 with DLD-1, with DMS-273, with HOP-18, with KM-20L2, with LXFL 529 and in the test on RXF 631 was > 100 µM (inactive) throughout. Besides, the GI50 with SNB-78 and with XF498 was > 100 µM (inactive) throughout.
Turning to `Cc1cccc(C)c1NC(=O)C(=O)Nn1c(NN)nc2ccccc2c1=O`, the GI50 in the test with DMS-114, in the test with DMS-273, in the test on HOP-18, in the test on KM-20L2, in the test with LXFL 529 and with RXF 631 was > 100 µM (inactive) in each case. The GI50 in the test on SNB-78 was > 100 µM (inactive).
Turning to `CCCCOC(=O)NC(=O)c1cn(CCCOC(=O)CCCCCCCCC(=O)OCCCn2cc(C(=O)NC(=O)OCCCC)c(=O)[nH]c2=O)c(=O)[nH]c1=O`, the GI50 in the test on DLD-1 is > 100 µM (inactive); in the test with DMS-114 it was > 100 µM (inactive); with HOP-18, 24.9 µM (inactive); with KM-20L2, > 100 µM (inactive); with LXFL 529 it was > 100 µM (inactive); in the test with RXF 631, 98.6 µM (inactive). For the same molecule, in the test on XF498, the GI50 is > 100 µM (inactive).
Regarding `O=[N+]([O-])c1ccc(N=P(c2ccccc2)(c2ccccc2)c2ccccc2)n2nnnc12`, the GI50 with DMS-114 is 72.3 µM (inactive); in the test with DMS-273, > 100 µM (inactive); in the test with HOP-18, > 100 µM (inactive); in the test with KM-20L2, > 100 µM (inactive); in the test with LXFL 529 it was 48.3 µM (inactive); with XF498 it was 32.7 µM (inactive).
Turning to `Cc1ccc(S(=O)(=O)NC(=O)C#CCOC2CCCCO2)cc1` (stereo not drawn), the GI50 in the test on DLD-1, in the test on DMS-114, in the test with DMS-273, with HOP-18, in the test on KM-20L2 and in the test on LXFL 529 was > 100 µM (inactive) in each case. Besides, the GI50 with RXF 631 and in the test with XF498 was > 100 µM (inactive) each time.
Turning to `COc1ccc2nc3cc(Cl)ccc3c(NCCC[N+](C)(C)CCCCCCCCCCCCCCCC[N+](C)(C)CCCNc3c4ccc(Cl)cc4nc4ccc(OC)cc34)c2c1`, the GI50 with DLD-1 is 3.11 µM (inactive); with DMS-114, 1.89 µM (inactive); in the test with DMS-273, 1.77 µM (inactive); in the test with HOP-18, 2.42 µM (inactive); with KM-20L2 it was 3.3 µM (inactive); in the test on LXFL 529, 1.79 µM (inactive). Also, the GI50 in the test with RXF 631 was 7.14 µM (inactive).
For the molecule `CC(C)N(C(=O)C12C3C4C1C1C2C3C41C(=O)C(C)(C)C)C(C)C` (stereo not drawn), the GI50 was > 100 µM (inactive) in the test with DLD-1; 52.5 µM (inactive) in the test with DMS-114; > 100 µM (inactive) in the test on DMS-273; > 100 µM (inactive) in the test with KM-20L2; > 100 µM (inactive) in the test with LXFL 529; > 100 µM (inactive) in the test on SNB-78. For the same molecule, the GI50 with XF498 was > 100 µM (inactive).
Take `COC(=O)C(=C/c1ccc(OC)cc1)/C(C(=O)O)=C(/C)c1ccccc1`: the GI50 with DLD-1, with DMS-273, with HOP-18, in the test with KM-20L2, in the test with LXFL 529 and in the test with SNB-78 was > 100 µM (inactive) in each case. The GI50 with XF498 was > 100 µM (inactive).
In the case of `COc1c(I)c(OC)c2c(c1I)O[C@@H]1OCC[C@H]21`, the GI50 in the test with DLD-1 is > 100 µM (inactive); in the test with DMS-114 it was 26.5 µM (inactive); with DMS-273, 23.1 µM (inactive); with HOP-18 it was 24.3 µM (inactive); in the test on KM-20L2 it was 65.3 µM (inactive); with LXFL 529 it was 26.9 µM (inactive). The GI50 in the test with RXF 631 is 29.9 µM (inactive); with SNB-78, 57.9 µM (inactive); in the test with XF498, 30.3 µM (inactive).
